Reference: patent publication EP1023075B1, “LIQUID PRESENTATIONS OF OXAZAPHOSPHORINE-CONTAINING PHARMACEUTICAL PRODUCTS” (STADA ARZNEIMITTEL AG, priority 1997, dated 1999)
Converted amounts (≈) assume the structure as drawn. Where two headings read alike, the source gives them in different places.

How the values were obtained:
[1] = Solubility trials: saturation concentration of the oxazaphosphorine in water / aqueous urea solution; conditions: for pH-Wert: saturated Ifosfamid solution
[2] = cited from earlier work
[3] = water, Sättigungskonzentration in Wasser, in Wasser

Compound `O=P1(N(CCCl)CCCl)NCCCO1` (stereo not shown) [Cyclophosphamid] has a solubility ([1]; aqueous urea solution, Cyclophosphamid-Endkonzentration, Harnstoff-Startkonzentration 10 % (G/V), Harnstoff-Endkonzentration 9,1 % (G/G)) of 87 mg/mL (≈ 333 mM), a solubility ([1]; aqueous urea solution, Cyclophosphamid-Endkonzentration, Harnstoff-Startkonzentration 20 % (G/V), Harnstoff-Endkonzentration 17,0 % (G/G)) of 112 mg/mL (≈ 429 mM) and a solubility ([1]; aqueous urea solution, Cyclophosphamid-Endkonzentration, Harnstoff-Startkonzentration 30 % (G/V), Harnstoff-Endkonzentration 24,2 % (G/G)) of 136 mg/mL (≈ 521 mM). For the same compound, the solubility ([1]; aqueous urea solution, Cyclophosphamid-Endkonzentration, Harnstoff-Startkonzentration 40 % (G/V), Harnstoff-Endkonzentration 30,3 % (G/G)) was 172 mg/mL (≈ 659 mM), the solubility ([1]; aqueous urea solution, Cyclophosphamid-Endkonzentration, Harnstoff-Startkonzentration 45 % (G/V), Harnstoff-Endkonzentration 37,3 % (G/G)) was 170 mg/mL (≈ 651 mM) and the solubility ([1]; aqueous urea solution, Cyclophosphamid-Endkonzentration, Harnstoff-Startkonzentration 50 % (G/V), Harnstoff-Endkonzentration 45,2 % (G/G)) was 152 mg/mL (≈ 582 mM). The solubility ([1]; aqueous urea solution, Cyclophosphamid-Sättigungskonzentration, with Harnstoff, up to Harnstoffstartkonzentration 50% (G/V)) was ≤ 170 mg/mL, the solubility ([1]; water, Cyclophosphamid-Endkonzentration, Harnstoff-Startkonzentration 0 % (G/V), Harnstoff-Endkonzentration 0 % (G/G)) was 61 mg/mL (≈ 234 mM) and the solubility [1, 3] was ~60 mg/mL (≈ 230 mM). The Wirkstoffverlust ([2]; 2%ige (G/V) wäßrige Cyclophosphamidlösungen, 2 bis 8°C, nach 17 Wochen, 171360 min) was ≤ 10% and the Wirkstoffverlust ([2]; 2%ige (G/V) wäßrige Cyclophosphamidlösungen, Raumtemperatur, nach 7 Tagen) was ≤ 10%.

Compound `O=P1(NCCCl)OCCCN1CCCl` (stereo not shown) [Ifosfamid] has a solubility ([1]; aqueous urea solution, Ifosfamid-Endkonzentration, Harnstoff-Startkonzentration 1,0 % (G/V), Harnstoff-Endkonzentration 0,8 % (G/G)) of 128 mg/mL (≈ 490 mM), a solubility ([1]; aqueous urea solution, Ifosfamid-Endkonzentration, Harnstoff-Startkonzentration 2,0 % (G/V), Harnstoff-Endkonzentration 1,6 % (G/G)) of 132 mg/mL (≈ 506 mM) and a solubility ([1]; aqueous urea solution, Ifosfamid-Endkonzentration, Harnstoff-Startkonzentration 3,0 % (G/V), Harnstoff-Endkonzentration 2,4 % (G/G)) of 139 mg/mL (≈ 532 mM). For the same compound, the solubility ([1]; aqueous urea solution, Ifosfamid-Endkonzentration, Harnstoff-Startkonzentration 4,0 % (G/V), Harnstoff-Endkonzentration 3,2 % (G/G)) was 147 mg/mL (≈ 563 mM), the solubility ([1]; aqueous urea solution, Ifosfamid-Endkonzentration, Harnstoff-Startkonzentration 5,0 % (G/V), Harnstoff-Endkonzentration 3,8 % (G/G)) was 153 mg/mL (≈ 586 mM) and the solubility ([1]; aqueous urea solution, Ifosfamid-Endkonzentration, Harnstoff-Startkonzentration 6,0 % (G/V), Harnstoff-Endkonzentration 4,4 % (G/G)) was 159 mg/mL (≈ 609 mM). The solubility ([1]; aqueous urea solution, Ifosfamid-Endkonzentration, Harnstoff-Startkonzentration 7,0 % (G/V), Harnstoff-Endkonzentration 4,6 % (G/G)) was 169 mg/mL (≈ 647 mM), the solubility ([1]; aqueous urea solution, Ifosfamid-Endkonzentration, Harnstoff-Startkonzentration 8,0 % (G/V), Harnstoff-Endkonzentration 5,0 % (G/G)) was 172 mg/mL (≈ 659 mM) and the solubility ([1]; aqueous urea solution, Ifosfamid-Endkonzentration, Harnstoff-Startkonzentration 9,0 % (G/V), Harnstoff-Endkonzentration 5,1 % (G/G)) was 173 mg/mL (≈ 663 mM). For the same compound, the solubility ([1]; aqueous urea solution, Ifosfamid-Endkonzentration, Harnstoff-Startkonzentration 10,0 % (G/V), Harnstoff-Endkonzentration 6,6 % (G/G)) was 370 mg/mL (≈ 1420 mM), the solubility ([1]; aqueous urea solution, Ifosfamid-Endkonzentration, Harnstoff-Startkonzentration 12,5 % (G/V), Harnstoff-Endkonzentration 7,0 % (G/G)) was 412 mg/mL (≈ 1580 mM) and the solubility ([1]; aqueous urea solution, Ifosfamid-Endkonzentration, Harnstoff-Startkonzentration 15 % (G/V), Harnstoff-Endkonzentration 12,2 % (G/G)) was 462 mg/mL (≈ 1770 mM). The solubility ([1]; aqueous urea solution, Ifosfamid-Endkonzentration, Harnstoff-Startkonzentration 20 % (G/V), Harnstoff-Endkonzentration 15,8 % (G/G)) was 483 mg/mL (≈ 1850 mM), the solubility ([1]; aqueous urea solution, Ifosfamid-Endkonzentration, Harnstoff-Startkonzentration 30 % (G/V), Harnstoff-Endkonzentration 24,2 % (G/G)) was 521 mg/mL (≈ 2000 mM) and the solubility ([1]; aqueous urea solution, Ifosfamid-Endkonzentration, Harnstoff-Startkonzentration 40 % (G/V), Harnstoff-Endkonzentration 34,3 % (G/G)) was 462 mg/mL (≈ 1770 mM). The solubility ([1]; aqueous urea solution, Ifosfamid-Endkonzentration, Harnstoff-Startkonzentration 50 % (G/V), Harnstoff-Endkonzentration 42,1 % (G/G)) was 443 mg/mL (≈ 1700 mM), the solubility ([1]; aqueous urea solution, Ifosfamid-Sättigungskonzentration, bei geeigneter Harnstoffkonzentration) was ~500 mg/mL (≈ 1920 mM) and the pH-Wert ([1]; Harnstoff-Startkonzentration 0 % (G/V)) was 5,2. For the same compound, the pH-Wert ([1]; Harnstoff-Startkonzentration 1,0 % (G/V)) was 5,0, the pH-Wert ([1]; Harnstoff-Startkonzentration 2,0 % (G/V)) was 5,0 and the pH-Wert ([1]; Harnstoff-Startkonzentration 3,0 % (G/V)) was 5,0. The pH-Wert ([1]; Harnstoff-Startkonzentration 4,0 % (G/V)) was 5,1, the pH-Wert ([1]; Harnstoff-Startkonzentration 5,0 % (G/V)) was 5,1 and the pH-Wert ([1]; Harnstoff-Startkonzentration 6,0 % (G/V)) was 5,1. The pH-Wert ([1]; Harnstoff-Startkonzentration 7,0 % (G/V)) was 5,1, the pH-Wert ([1]; Harnstoff-Startkonzentration 8,0 % (G/V)) was 5,1 and the pH-Wert ([1]; Harnstoff-Startkonzentration 9,0 % (G/V)) was 5,2. For the same compound, the pH-Wert ([1]; Harnstoff-Startkonzentration 10,0 % (G/V)) was 5,1, the pH-Wert ([1]; Harnstoff-Startkonzentration 12,5 % (G/V)) was 5,0 and the pH-Wert ([1]; Harnstoff-Startkonzentration 15 % (G/V)) was 5,0. The pH-Wert ([1]; Harnstoff-Startkonzentration 20 % (G/V)) was 5,0, the pH-Wert ([1]; Harnstoff-Startkonzentration 30 % (G/V)) was 5,0 and the pH-Wert ([1]; Harnstoff-Startkonzentration 40 % (G/V)) was 5,0. For the same compound, the pH-Wert ([1]; Harnstoff-Startkonzentration 50 % (G/V)) was 5,0, the solubility ([1]; water, Ifosfamid-Endkonzentration, Harnstoff-Startkonzentration 0 % (G/V), Harnstoff-Endkonzentration 0 % (G/G)) was 118 mg/mL (≈ 452 mM) and the solubility [1, 3] was ~120 mg/mL (≈ 460 mM). The Wirkstoffverlust ([2]; 5%ige und 10%ige (G/V) wäßrige Ifosfamidlösungen, 2 bis 8°C, nach 17 Wochen, 171360 min) was ≤ 10% and the Wirkstoffverlust ([2]; 5%ige und 10%ige (G/V) wäßrige Ifosfamidlösungen, Raumtemperatur, nach 6 Wochen, 60480 min) was ≤ 10%.
